According to paper PMC6532548, “Embelin, a Potent Molecule for Alzheimer's Disease: A Proof of Concept From Blood-Brain Barrier Permeability, Acetylcholinesterase Inhibition and Molecular Docking Studies” (Frontiers in Neuroscience, 2019):

Biological target: acetylcholinesterase (AChE) (Electrophorus electricus, UniProt O42275)
Test: Ellman's assay with electric eel AChE, acetylthiocholine iodide substrate
Type: biochemical

Chain of acetylcholinesterase (AChE) (O42275 24-633): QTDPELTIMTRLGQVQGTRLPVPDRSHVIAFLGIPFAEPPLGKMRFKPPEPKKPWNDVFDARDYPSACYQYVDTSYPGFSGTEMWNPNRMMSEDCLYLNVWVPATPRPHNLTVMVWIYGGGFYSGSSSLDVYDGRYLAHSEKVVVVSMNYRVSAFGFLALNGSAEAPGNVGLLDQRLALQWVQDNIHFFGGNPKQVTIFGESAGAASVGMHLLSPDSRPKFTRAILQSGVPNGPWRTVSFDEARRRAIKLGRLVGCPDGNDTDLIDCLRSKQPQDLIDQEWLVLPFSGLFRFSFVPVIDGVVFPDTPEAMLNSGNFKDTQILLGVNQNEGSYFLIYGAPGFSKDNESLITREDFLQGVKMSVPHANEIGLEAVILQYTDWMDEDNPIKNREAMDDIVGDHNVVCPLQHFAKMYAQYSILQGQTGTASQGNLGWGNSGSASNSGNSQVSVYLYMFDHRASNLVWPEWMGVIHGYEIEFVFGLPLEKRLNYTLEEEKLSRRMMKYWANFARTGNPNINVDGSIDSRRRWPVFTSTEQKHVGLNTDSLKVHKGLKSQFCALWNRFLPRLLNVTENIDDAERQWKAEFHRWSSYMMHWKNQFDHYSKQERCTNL

CCCCCCCCCCCC1=C(O)C(=O)C=C(O)C1=O [embelin, 2,5-dihydroxy-3-undecyl-1,4-benzoquinone]
IC50: 169 µM
